From patent US20100056441A1, “Method for Inhibiting Angiogenesis” (priority 2006, published 2010)
Non-standard residues stand in square brackets, D forms with d. Residues, ends and D or L forms follow the SMILES beside them.

How the values were obtained:
mouse HCC cells = assay: Apoptosis in mouse liver tumors (H&E, TUNEL, activated caspase 3); type: in vivo; conditions: treated tumor-bearing mice
Description: Furthermore, these apoptotic tumor cells were not apparent in FoxM1 deficient livers in dsRNA (CKO) Mx-Cre Foxm1−/− mice (FIG. 3E-3G).
To measure apoptosis in mouse livers we used the Terminal Deoxynucleotidyl Transferase-mediated dUTP-biotin Nick End Labeling (TUNEL) assay on liver sections using the ApoTag Fluorescein in situ apoptosis detection kit from Intergen (Purchase, N.Y.) according to the manufacturer's recommendations. The mean number (±SD) of TUNEL- or DAPI-positive hepatocyte nuclei was calculated per 1000 cells or 200× field by counting the number of positive hepatocyte nuclei using five different 200× fields of liver tumor sections from male mice at the indicated times of DEN/PB exposure.

[1] = system: HCC cells of ARF -/- Rosa 26 FoxM1b TG mice; assay: Apoptosis of HCC in ARF -/- Rosa26 FoxM1b TG mice (H&E, TUNEL); type: in vivo, mouse
Protocol: In order to determine the effective concentration of dose of the ARF peptide for efficient liver delivery, mice were subjected to IP injection of either 0.1, 1, 5 or 10 mg/Kg body weight of TMR fluorescently tagged WT ARF 26-44 peptide, and were sacrificed 24 hours later, after which their livers were dissected, formalin fixed and paraffin embedded. Liver sections were treated with Xylene to remove paraffin wax and then examined by fluorescent microscopy for red peptide fluorescence. This dose response curve determined that IP injection of either equal or greater than 5 mg/Kg body weight of TMR-fluorescently labeled WT ARF 26-44 peptide was detectable in cytoplasm and nucleolus of hepatocytes and in hepatic mesenchymal cells at 24 hours after injection (FIG. 4G). […]
To measure apoptosis in mouse livers we used the Terminal Deoxynucleotidyl Transferase-mediated dUTP-biotin Nick End Labeling (TUNEL) assay on liver sections using the ApoTag Fluorescein in situ apoptosis detection kit from Intergen (Purchase, N.Y.) according to the manufacturer's recommendations. The mean number (±SD) of TUNEL- or DAPI-positive hepatocyte nuclei was calculated per 1000 cells or 200× field by counting the number of positive hepatocyte nuclei using five different 200× fields of liver tumor sections from male mice at the indicated times of DEN/PB exposure. […]

FoxM1b = molecular target: T1, FoxM1b (Homo sapiens, UniProt Q08050); conditions: cited from earlier work
T1 sequence (Q08050 1-748 isoform Q08050-2): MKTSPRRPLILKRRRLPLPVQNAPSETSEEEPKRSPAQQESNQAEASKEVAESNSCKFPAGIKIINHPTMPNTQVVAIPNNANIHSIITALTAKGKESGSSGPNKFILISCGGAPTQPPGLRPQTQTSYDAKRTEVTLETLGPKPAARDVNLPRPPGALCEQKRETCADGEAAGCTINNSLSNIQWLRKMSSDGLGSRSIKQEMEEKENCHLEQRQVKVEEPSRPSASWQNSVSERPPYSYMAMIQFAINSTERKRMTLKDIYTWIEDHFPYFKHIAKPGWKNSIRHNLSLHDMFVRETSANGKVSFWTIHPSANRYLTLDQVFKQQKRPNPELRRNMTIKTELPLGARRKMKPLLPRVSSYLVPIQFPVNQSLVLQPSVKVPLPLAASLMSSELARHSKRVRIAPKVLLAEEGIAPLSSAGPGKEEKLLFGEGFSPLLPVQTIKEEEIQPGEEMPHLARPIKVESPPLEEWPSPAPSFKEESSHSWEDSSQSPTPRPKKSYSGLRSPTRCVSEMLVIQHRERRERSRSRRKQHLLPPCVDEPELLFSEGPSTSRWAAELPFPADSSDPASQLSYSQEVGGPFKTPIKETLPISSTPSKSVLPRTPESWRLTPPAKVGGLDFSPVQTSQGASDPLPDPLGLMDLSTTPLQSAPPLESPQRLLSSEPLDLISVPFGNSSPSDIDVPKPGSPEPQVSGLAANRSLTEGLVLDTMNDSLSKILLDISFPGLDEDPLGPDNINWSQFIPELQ

| Compound | activated caspase 3 staining in adjacent normal liver tissue (mouse HCC cells) | red staining cells in surrounding normal liver tissue (H&E) (mouse HCC cells) | TUNEL-positive cells in adjacent normal liver tissue [1] | inhibition of FoxM1B activity (FoxM1b) |
| --- | --- | --- | --- | --- |
| CC(C)C[C@H](NC(=O)[C@H](C)NC(=O)[C@H](CS)NC(=O)[C@H](CO)NC(=O)[C@H](C)NC(=O)[C@@H](NC(=O)[C@H](CCCNC(=N)N)NC(=O)[C@@H]1CCCN1C(=O)[C@H](CCCNC(=N)N)NC(=O)[C@H](CCCNC(=N)N)NC(=O)[C@H](CO)NC(=O)[C@H](CCCNC(=N)N)NC(=O)[C@@H](NC(=O)[C@H](Cc1ccccc1)NC(=O)[C@H](CCCCN)NC(=O)[C@@H](CCCNC(=N)N)NC(=O)[C@@H](CCCNC(=N)N)NC(=O)[C@@H](CCCNC(=N)N)NC(=O)[C@@H](CCCNC(=N)N)NC(=O)[C@@H](CCCNC(=N)N)NC(=O)[C@@H](CCCNC(=N)N)NC(=O)[C@@H](CCCNC(=N)N)NC(=O)[C@@H](CCCNC(=N)N)NC(=O)[C@H](N)CCCNC(=N)N)C(C)C)[C@@H](C)O)C(=O)N[C@@H](C)C(=O)N[C@@H](Cc1ccccc1)C(=O)N[C@H](C(=O)N[C@@H](CC(N)=O)C(=O)O)C(C)C [WT ARF 26-44 peptide, rrrrrrrrrKFVRSRRPRTASCALAFVN] (H-[dR][dR][dR][dR][dR][dR][dR][dR][dR]KFVRSRRPRTASCALAFVN-OH; N-terminus and C-terminus assumed) | no pro-apoptotic staining in the adjacent normal liver tissue | neither in the surrounding normal liver tissue | not detected in adjacent normal liver tissue | – |
| KFVRSRRPRTASCALAFVN (listed as Homo sapiens) [p19ARF26-44 peptide, amino acids 26-44 of the p19ARF tumor suppressor protein] | – | – | – | sufficient in inhibiting FoxM1B activity |
